Experimental findings from US20260125649A1, “MEDIUM COMPOSITION AND METHOD FOR CULTURING MESENCHYMAL STEM CELLS” (ACADEMIA SINICA, priority 2018, published 2026) are described below.

Format in all cases: cell-based, human
In one assay the test system is STAT3 (Tyr705). Nature of the assay: STAT3 phosphorylation by Western blotting. How it is done: After treatment, the protein levels of total STAT3 and phospho-STAT3 (Tyr705) were examined by Western blotting. […] Cell cycle progression was investigated by flow cytometry with PI staining. Fraction of cells in each phase (G1, S, G2/M) of the cell cycle was evaluated. Cells expressing STAT3 shRNA were treated with EpEX for 18 h, after which cell cycle progression was investigated by flow cytometry with PI staining. Fraction of cells in each phase (G1, S, G2/M) of the cell cycle was evaluated. […] The protein levels of cell cycle regulators (cyclin D1, cyclin D2, cyclin E1, CDK4 and CDK9) and pluripotency factors (Oct4, Sox2, c-Myc, Lin28) were examined by Western blotting. MSCs expressing STAT3 shRNA or shLuc were stimulated with EpEX. After treatment, the protein levels of cell cycle regulators (cyclin D1, cyclin D2, cyclin E1, CDK4 and CDK9) and pluripotency factors (Oct4, Sox2, c-Myc, and Lin 28) were examined by Western blotting. […] After treatment, the gene expression of pluripotency factors (Oct4, Sox2, c-Myc, Lin28 and EpCAM) was examined by qPCR.
FIG. 8. EpEX and EGF induce the phosphorylation of EGFR and STAT3. […] The phosphorylation of EGFR (Tyr845) and STAT3 (Tyr705) were examined by Western blotting with specific antibodies.
Western blotting was performed as previously described (Takahashi et al., 2003). […]
In general terms: A western blot detects proteins with antibodies after separation by electrophoresis.

Another assay concerns MSCs. The experiment in a line: Cell cycle progression by flow cytometry with PI staining. As to conditions: inhibitor pretreatment (AG1478 25 μM, 30 min; WP1066 5 μM), then EpEX 18 h. As for the experimental part:
Phospho-EGFR (Tyr845) was detected by Western blotting. […] After treatment, cell cycle progression was investigated by flow cytometry with PI staining. Fraction of cells in each phase (G1, S, G2/M) of the cell cycle was evaluated. Cells that expressed EGFR shRNA or shLuc were treated with EpEX for 18 h. After treatment, cell cycle progression was investigated by flow cytometry with PI staining. Fraction of cells in each phase (G1, S, G2/M) of the cell cycle was evaluated. […] The protein expression of cell cycle regulators (cyclin D1, cyclin D2, cyclin E1) and pluripotency factors (Oct4, Sox2, c-Myc, Lin28) was examined by Western blotting. MSCs expressing EGFR shRNA were stimulated by EpEX. After treatment, the protein expression of cell cycle regulators (cyclin D1, cyclin E1, CDK4 and CDK9) and pluripotency factors (Oct4, in Sox2, c-Myc, and Lin 28) was examined by Western blotting. […] After treatment, the gene expression of pluripotency factors (Oct4, Sox2, c-Myc, Lin28 and EpCAM) was examined by qPCR.
After treatment, the protein levels of total STAT3 and phospho-STAT3 (Tyr705) were examined by Western blotting. […] Cell cycle progression was investigated by flow cytometry with PI staining. Fraction of cells in each phase (G1, S, G2/M) of the cell cycle was evaluated. […] Fraction of cells in each phase (G1, S, G2/M) of the cell cycle was evaluated. […]
For orientation: A flow cytometer gives signals particle by particle.

Assay [1] deals with TACE (Ser435), PS2 (Ser327), ERK1/2. The experiment in a line: Western blotting of phosphorylation of TACE, Presenilin 2 and ERK1/2. As to conditions: addition of EGFR inhibitor. How it is done: FIG. 9. EpEX induces the phosphorylation and activity of TACE and γ-secretase. MSCs were stimulated by EpEX for the indicated times, and the activity of TACE and γ-secretase were detected. MSCs were stimulated by EpEX (3 μg/mL) for the indicated times. Western blot analysis was performed to detect the phosphorylation of TACE and Presenilin 2.
FIG. 10. EpEX and EGF induce the phosphorylation of TACE, ERK1/2 and PS2. MSCs were treated with either EGF, EpEX, or co-treated with EGF and EpEX for 5 min. The phosphorylation of ERK1/2 was examined by Western blotting with specific antibodies. […] The phosphorylation of ERK1/2, TACE (Ser435), PS2 (Ser327) were examined by Western blotting with specific antibodies.
Western blotting was performed as previously described (Takahashi et al., 2003). Cells were lysed in lysis buffer (150 mM NaCl, 50 mM Tris-HCl (pH 7.4), 1% Nonidet P-40), containing a protease inhibitor mix (Roche Applied Science). Nuclear fractions and cytoplasmic fractions were separated by the Nuclear/Cytosol Fractionation Kit according to the manufacturer's instructions (BioVision Inc., Milpitas, CA, USA). Protein samples were separated by SDS-PAGE under denaturing conditions, and transferred to a PVDF membrane (Millipore). […]

Assay [2] relates to cyclin A2, cyclin D1, cyclin D2, cyclin D3, cyclin E1, CDK4, CDK9, Oct4, Sox2, c-Myc, Lin28. The experiment in a line: Western blotting of cell cycle regulators and pluripotency factors in MSCs. Particulars: pretreatment, then EpEX. How it is done: The proliferation of MSCs was examined by measuring doubling time. MSCs were treated with EpEX (3 μg/mL) for 24 and 48 h. Cell number was counted and then doubling time was calculated. MSCs were treated with EpEX (3 μg/mL) for the indicated times. After treatment, protein expression of cell cycle regulators (cyclin D1, cyclin D2, cyclin D3, cyclin E1, CDK4 and CDK9) and pluripotency factors (Oct4, Sox2, c-Myc, and Lin28) was examined by Western blotting.
Phospho-EGFR (Tyr845) was detected by Western blotting. […] After treatment, cell cycle progression was investigated by flow cytometry with PI staining. Fraction of cells in each phase (G1, S, G2/M) of the cell cycle was evaluated. Cells that expressed EGFR shRNA or shLuc were treated with EpEX for 18 h. After treatment, cell cycle progression was investigated by flow cytometry with PI staining. Fraction of cells in each phase (G1, S, G2/M) of the cell cycle was evaluated. […]
After treatment, the protein levels of total STAT3 and phospho-STAT3 (Tyr705) were examined by Western blotting. […] Fraction of cells in each phase (G1, S, G2/M) of the cell cycle was evaluated. […] Fraction of cells in each phase (G1, S, G2/M) of the cell cycle was evaluated. […]
The expression of let-7 was detected by qPCR. […] The expression of let-7 was detected by qPCR. […]

Take `COc1cc2ncnc(Nc3cccc(Cl)c3)c2cc1OC` [AG1478, reference compound]: the “effect on activation of STAT3 by either EGF or EpEX” value with STAT3 (Tyr705) (pretreatment with AG1478) is on record as “can attenuate”. For the same compound, the “effect on EpEX-induced cell cycle progression” value in the assay on MSCs is “attenuated”. In addition, in assay [1], the “effect on EpEX-induced phosphorylation of TACE” value is reported as “can be abolished” and the “effect on EpEX-induced phosphorylation of presenilin-2” value was “can be abolished”. The “effect on EpEX-induced protein expression of cell cycle regulators and pluripotency markers” value in assay [2] was “abolished”.
`C[C@H](NC(=O)/C(C#N)=C/c1cccc(Br)n1)c1ccccc1` [WP1066, reference compound]: the “effect on EpEX-induced cell cycle progression” value in the assay on MSCs was “attenuated”. Also, in assay [2], the “effect on EpEX-induced protein expression of cell cycle regulators and pluripotency markers” value is recorded as “blocked”.
On to EGF: cognate ligand for EGFR, for which the STAT3 phosphorylation entry in the assay on STAT3 (Tyr705) (MSCs treated with the substance) is “can induce”.
